Source: US20220241409A1, “WATER SOLUBLE ADJUVANT AND COMPOSITION CONTAINING SAME” (Sumitomo Dainippon Pharma Co., Ltd., priority 2019, published 2022)

How the values were obtained:
Antigen-Specific CTL = assay: Immune response of antigen-specific CTL for peptide and tumor cell, vaccine b (Test 12); format: in vivo, mouse
Description: Vaccine b prepared like Test 8 was injected to a HLA-A*02:01 transgenic mouse intradermally at the tail base area in an amount for administering 300 μg of Compound of formula 4 per body and 225 μg of Peptide SEQ ID No. 3 per body. Or, in the step of preparing vaccine b, the compound prepared in Example 2 was added to the diluted peptide solution to prepare a vaccine, and the prepared vaccine was injected to a HLA-A*02:01 transgenic mouse intradermally at the tail base area in an amount for administering 300 μg of Compound of formula 4 per body, 225 μg of Peptide SEQ ID No. 3 per body, and 325 ng of the compound prepared in Example 2 per body. One week later, the mice were sacrificed with CO2 gas, and then spleens removed from the mice. A splenocyte suspension was prepared from the spleens with CTM. Like Test 6, Peptide (SEQ ID No. 1) was added to the splenocyte-containing ELISPOT plate, and the plate was incubated overnight at 37° C. under an atmosphere of 5% CO2 to re-stimulate the peptide in vitro. Then, after removal of the supernatant from the wells, stained spots on the ELISPOT plate were counted. […] The concentration of mouse IFN-γ in the culture supernatant was measured with an ELISA kit.

[1] = system: mouse bone marrow-derived dendritic cell; assay: Activation of mouse bone marrow-derived dendritic cell, cytokine/chemokine production (Test 4); format: cell-based; conditions: 200 nmol/L, one day, compared with only DMSO
Description: Myeloid cells were collected from the femur and tibia of HLA-A*02:01 transgenic mouse (C57BL/6CrHLA-A2.1DR1), and then suspended in RPMI 1640 medium with 10% fetal bovine serum (FBS) and 10 ng/mL of GM-CSF. The dendritic cells in the myeloid cells were incubated at 37° C. under an atmosphere of 5% CO2 for induction of differentiation. Seven days after the incubation, the cells were collected. After observing the expression of CD11c on the cell surface by flow cytometry, the cells were cryopreserved. Cryopreserved mouse bone marrow-derived dendritic cells were reconstituted, suspended in RPMI 1640 medium with 10% FBS, and seeded on a U-bottom 96 well plate at 5×10^5 cells/well. The compound prepared in Example 3 was added in the presence of 0.1% (v/v) DMSO to the wells at a final concentration of 200 nmol/L. The plate was incubated at 37° C. under an atmosphere of 5% CO2. One day after the incubation, the culture supernatant was collected. The concentration of cytokine and chemokine (IL-1p, IL-6, IL-12p40, IL-12p70, IP-10, MIP-1α, MIP-1β, Rantes, and TNFα) which were included in each culture supernatant was measured with Milliplex Mouse Cytokine/Chemokine Magnetic Bead Panel kit (Millipore) and Luminex system in accordance with the manufacturer's protocol. […]

[2] = system: HLA-A*02:01 transgenic mouse; assay: In vivo adjuvant activity, CTL induction with vaccine c, IFNγ ELISPOT (Test 9); conditions: 32.5 ng per body added to vaccine c versus no compound; twice, one week interval
Description: The in vivo adjuvant activity of the compounds prepared in Example 3 was evaluated in the following procedure. To a vaccine comprising Peptide SEQ ID No. 1 prepared in Reference example 1 with a preliminarily-emulsified composition (hereinafter, referred to as “vaccine c”) was added the compound prepared in Example 3 to prepare a vaccine. The vaccine was administered to a HLA-A*02:01 transgenic mouse, and the adjuvant activity of the vaccine was evaluated by the method of testing antigen-specific CTL induction.
Specifically, Peptide SEQ ID No. 1 was dissolved in DMSO, and then diluted with water for injection to concentrations of Peptide SEQ ID No. 1 of 2 mg/mL. The diluted peptide solution was mixed and emulsified with an equal volume of a preliminarily-emulsified composition to prepare vaccine c. Vaccine c was injected to mice intradermally at the tail base area in an amount for administering 200 μg of Peptide SEQ ID No. 1 per body. Or, in the step of preparing vaccine c, the compound prepared in Example 3 was added to the diluted peptide solution to prepare a vaccine, and the prepared vaccine was injected to mice intradermally at the tail base area in an amount for administering 200 μg of Peptide SEQ ID No. 1 per body, and 32.5 ng of the compound prepared in Example 3 per body. […] Then, after removal of the supernatant from the wells, stained spots on the ELISPOT plate were counted.

Row | SMILES | CTLs specific to Peptide (SEQ ID No. 1) in splenocyte, relative to vaccine b without compound (Antigen-Specific CTL; IFN-γ ELISPOT, 325 ng per body in vaccine b, one week later) | amount of IFN-γ produced from the CTL, relative to vaccine b without compound (Antigen-Specific CTL; about three days culture with LLC-HHD-WT1 tumor cells and Peptide SEQ ID No. 1, ELISA, average of 3 wells) | yield of cytokine and chemokine (IL-1β, IL-6, IL-12p40, IL-12p70, IP-10, MIP-1α, MIP-1β, Rantes, TNFα) [1] | CTL counts responsive to Peptide of SEQ ID No. 1 [2]
1 | CCCCOc1nc(N)c2[nH]c(=O)n(Cc3ccc(CN(C)CCOCCOCCOCCOCCO)nc3)c2n1 [Example 2, 6-amino-2-butoxy-9-{[6-(16-hydroxy-2-methyl-5,8,11,14-tetraoxa-2-azahexadecan-1-yl)pyridin-3-yl]methyl}-7,9-dihydro-8H-purin-8-one-trifluoroacetate] | 1.8 times | 8.7 times |  | 
2 | CCCCOc1nc(N)c2[nH]c(=O)n(Cc3ccc(CN(C)CCOCCOCCOCCOCCO)cc3)c2n1 [Example 3, 6-amino-2-butoxy-9-{[4-(16-hydroxy-2-methyl-5,8,11,14-tetraoxa-2-azahexadecan-1-yl)phenyl]methyl}-7,9-dihydro-8H-purin-8-one] |  |  | higher | more
